According to PubChem BioAssay (NCI):
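Exposure lasted 48 hours, with cells grown in 96-well plates and compounds tested at five concentrations. TGI marks complete inhibition of growth.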

Experiments:
Assay in all cases: DTP human tumour cell line panel, 48 h
A549 NSCLC = test system: A549 NSCLC
PC-3 prostate = test system: PC-3 prostate
RXF 393 renal = test system: RXF 393 renal
CCRF-CEM leukemia = test system: CCRF-CEM leukemia
SF-539 CNS = test system: SF-539 CNS
HCT-116 colon = test system: HCT-116 colon
MDA-MB-435 = test system: MDA-MB-435
OVCAR-5 ovarian = test system: OVCAR-5 ovarian
U251 CNS = test system: U251 CNS
HOP-62 NSCLC = test system: HOP-62 NSCLC
HL-60(TB) leukemia = test system: HL-60(TB) leukemia
NCI-H522 lung = test system: NCI-H522 lung
HCT-15 colon = test system: HCT-15 colon
SF-295 CNS = test system: SF-295 CNS
LOX IMVI melanoma = test system: LOX IMVI melanoma
HCC-2998 colon = test system: HCC-2998 colon
A498 renal = test system: A498 renal
OVCAR-4 ovarian = test system: OVCAR-4 ovarian
UACC-257 melanoma = test system: UACC-257 melanoma
SK-MEL-5 melanoma = test system: SK-MEL-5 melanoma
MDA-N = test system: MDA-N
SK-OV-3 ovarian = test system: SK-OV-3 ovarian
IGROV1 ovarian = test system: IGROV1 ovarian
MOLT-4 leukemia = test system: MOLT-4 leukemia
MCF7 breast = test system: MCF7 breast
NCI/ADR-RES ovarian = test system: NCI/ADR-RES ovarian
MALME-3M melanoma = test system: MALME-3M melanoma
COLO 205 colon = test system: COLO 205 colon
HOP-92 NSCLC = test system: HOP-92 NSCLC
SN12C renal = test system: SN12C renal
SNB-75 CNS = test system: SNB-75 CNS
HS 578T breast = test system: HS 578T breast
ACHN renal = test system: ACHN renal
K-562 leukemia = test system: K-562 leukemia
EKVX NSCLC = test system: EKVX NSCLC
UACC-62 melanoma = test system: UACC-62 melanoma
MDA-MB-231 breast = test system: MDA-MB-231 breast
786-0 renal = test system: 786-0 renal
OVCAR-3 ovarian = test system: OVCAR-3 ovarian
TK-10 renal = test system: TK-10 renal
KM12 colon = test system: KM12 colon
HT29 colon = test system: HT29 colon
OVCAR-8 ovarian = test system: OVCAR-8 ovarian
NCI-H23 lung = test system: NCI-H23 lung
T-47D breast = test system: T-47D breast
M14 melanoma = test system: M14 melanoma
RPMI-8226 leukemia = test system: RPMI-8226 leukemia
UO-31 renal = test system: UO-31 renal
SK-MEL-2 melanoma = test system: SK-MEL-2 melanoma
NCI-H226 lung = test system: NCI-H226 lung
SR leukemia = test system: SR leukemia
SK-MEL-28 melanoma = test system: SK-MEL-28 melanoma
SNB-19 CNS = test system: SNB-19 CNS
DU-145 prostate = test system: DU-145 prostate
NCI-H460 lung = test system: NCI-H460 lung
CAKI-1 renal = test system: CAKI-1 renal
SW-620 colon = test system: SW-620 colon
SF-268 CNS = test system: SF-268 CNS

COC(=O)CCc1ccc2c(c1)CC1(C2)Cc2ccc(CCC(=O)OC)cc2C1
TGI (A549 NSCLC): > 100 µM
TGI (PC-3 prostate): > 100 µM
TGI (RXF 393 renal): > 100 µM
TGI (CCRF-CEM leukemia): 97.1 µM
TGI (SF-539 CNS): > 100 µM
TGI (HCT-116 colon): > 100 µM
TGI (MDA-MB-435): > 100 µM
TGI (OVCAR-5 ovarian): > 100 µM
TGI (U251 CNS): > 100 µM
TGI (HOP-62 NSCLC): > 100 µM
TGI (HL-60(TB) leukemia): 38.7 µM
TGI (NCI-H522 lung): > 100 µM
TGI (HCT-15 colon): > 100 µM
TGI (SF-295 CNS): > 100 µM
TGI (LOX IMVI melanoma): 97.1 µM
TGI (HCC-2998 colon): > 100 µM
TGI (A498 renal): > 100 µM
TGI (OVCAR-4 ovarian): > 100 µM
TGI (UACC-257 melanoma): > 100 µM
TGI (SK-MEL-5 melanoma): 57.7 µM
TGI (MDA-N): > 100 µM
TGI (SK-OV-3 ovarian): > 100 µM
TGI (IGROV1 ovarian): > 100 µM
TGI (MOLT-4 leukemia): > 100 µM
TGI (MCF7 breast): > 100 µM
TGI (NCI/ADR-RES ovarian): > 100 µM
TGI (MALME-3M melanoma): > 100 µM
TGI (COLO 205 colon): > 100 µM
TGI (HOP-92 NSCLC): 99.7 µM
TGI (SN12C renal): > 100 µM
TGI (SNB-75 CNS): > 100 µM
TGI (HS 578T breast): > 100 µM
TGI (ACHN renal): > 100 µM
TGI (K-562 leukemia): > 100 µM
TGI (EKVX NSCLC): > 100 µM
TGI (UACC-62 melanoma): > 100 µM
TGI (MDA-MB-231 breast): > 100 µM
TGI (786-0 renal): > 100 µM
TGI (OVCAR-3 ovarian): > 100 µM
TGI (TK-10 renal): > 100 µM
TGI (KM12 colon): > 100 µM
TGI (HT29 colon): > 100 µM
TGI (OVCAR-8 ovarian): > 100 µM
TGI (NCI-H23 lung): > 100 µM
TGI (T-47D breast): > 100 µM
TGI (M14 melanoma): > 100 µM
TGI (RPMI-8226 leukemia): 89.7 µM
TGI (UO-31 renal): > 100 µM
TGI (SK-MEL-2 melanoma): > 100 µM
TGI (NCI-H226 lung): > 100 µM
TGI (SR leukemia): 61.5 µM

O=C(O)CCCc1nc2c(n1-c1ccccc1)C(=O)c1ccccc1C2=O
TGI (A549 NSCLC): > 100 µM
TGI (SK-MEL-28 melanoma): > 100 µM
TGI (CCRF-CEM leukemia): > 100 µM
TGI (SF-539 CNS): > 100 µM
TGI (SNB-19 CNS): > 100 µM
TGI (HCT-116 colon): > 100 µM
TGI (OVCAR-5 ovarian): > 100 µM
TGI (U251 CNS): > 100 µM
TGI (HL-60(TB) leukemia): > 100 µM
TGI (NCI-H522 lung): > 100 µM
TGI (HCT-15 colon): > 100 µM
TGI (SF-295 CNS): > 100 µM
TGI (LOX IMVI melanoma): > 100 µM
TGI (DU-145 prostate): > 100 µM
TGI (HCC-2998 colon): > 100 µM
TGI (A498 renal): > 100 µM
TGI (OVCAR-4 ovarian): 76.2 µM
TGI (UACC-257 melanoma): > 100 µM
TGI (MDA-N): > 100 µM
TGI (SK-OV-3 ovarian): > 100 µM
TGI (IGROV1 ovarian): > 100 µM
TGI (MOLT-4 leukemia): > 100 µM
TGI (NCI-H460 lung): > 100 µM
TGI (MCF7 breast): > 100 µM
TGI (NCI/ADR-RES ovarian): > 100 µM
TGI (CAKI-1 renal): > 100 µM
TGI (MALME-3M melanoma): 51.8 µM
TGI (COLO 205 colon): > 100 µM
TGI (HOP-92 NSCLC): > 100 µM
TGI (SN12C renal): > 100 µM
TGI (SNB-75 CNS): > 100 µM
TGI (HS 578T breast): > 100 µM
TGI (ACHN renal): > 100 µM
TGI (K-562 leukemia): > 100 µM
TGI (EKVX NSCLC): > 100 µM
TGI (UACC-62 melanoma): > 100 µM
TGI (SW-620 colon): > 100 µM
TGI (MDA-MB-231 breast): > 100 µM
TGI (SF-268 CNS): > 100 µM
TGI (786-0 renal): > 100 µM
TGI (OVCAR-3 ovarian): 82.7 µM
TGI (TK-10 renal): > 100 µM
TGI (KM12 colon): > 100 µM
TGI (OVCAR-8 ovarian): > 100 µM
TGI (NCI-H23 lung): > 100 µM
TGI (T-47D breast): > 100 µM
TGI (M14 melanoma): > 100 µM
TGI (RPMI-8226 leukemia): > 100 µM
TGI (UO-31 renal): > 100 µM
TGI (SK-MEL-2 melanoma): > 100 µM
TGI (SR leukemia): > 100 µM
